Test results: patent publication US6914045B2, “Glycopeptide antibiotics” (Wyeth Holdings Corporation, priority 2001, dated 2005)
Converted amounts (≈) assume the structure as drawn.

How the values were obtained:
Test in all cases: in vitro antibacterial evaluation, MIC by broth dilution
Format in all cases: cell-based
[1] = system: Escherichia coli; conditions: 18 hours at 35° C.
[2] = system: Staphylococcus sp.; conditions: broth dilution, 18 hours at 35° C.
In short: (§1)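 Broth dilution per NCCLS M7-A2 in Mueller-Hinton II medium, inoculum 5×10^5 CFU/mL, antibiotic range 64-0.06 μg/mL. MIC taken as lowest concentration inhibiting growth; Gram-positive panel includes recent clinical isolates resistant to methicillin, penicillin and/or vancomycin.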

[3] = system: Streptococcus sp.; conditions: broth dilution, 18 hours at 35° C.
In short: as §1

[4] = system: Enterococcus sp.; conditions: broth dilution, 18 hours at 35° C.
In short: as §1

CC(c1ccccc1)C1NC(=O)CNC(=O)C(CO)NC(=O)C(CC2CNC(=N)N2C2OC(CO)C(O)C(O)C2O)NC(=O)C(CC2CNC(=N)N2)NC(=O)C(Cc2ccc(OC3OC(CO)C(OC4OC(CO)C(O)C(O)C4OCc4ccc(OCc5ccccc5)cc4)C(O)C3O)cc2)NC1=O (stereo not shown) [Example 246c]
MIC Escherichia coli (ATCC 25922) [1]: >128 µg/mL
MIC Escherichia coli (GC 4559) [1]: >128 µg/mL
MIC Escherichia coli (GC 4560) [1]: 32 µg/mL (≈ 21.9 µM)
MIC Coagulase Negative Staphylococcus (GC 4547) [2]: >128 µg/mL
MIC Coagulase Negative Staphylococcus (GC 4548) [2]: >128 µg/mL
MIC Coagulase Negative Staphylococcus (GC 4549) [2]: >128 µg/mL
MIC Coagulase Negative Staphylococcus (GC 4551) [2]: >128 µg/mL
MIC Coagulase Negative Staphylococcus (GC 6257) [2]: >128 µg/mL
MIC Staphylococcus aureus (ATCC 29213) [2]: >128 µg/mL
MIC Staphylococcus aureus (GC 1131) [2]: >128 µg/mL
MIC Staphylococcus aureus (GC 3051) [2]: >128 µg/mL
MIC Staphylococcus aureus (GC 3053) [2]: >128 µg/mL
MIC Staphylococcus aureus (GC 4541) [2]: >128 µg/mL
MIC Staphylococcus aureus (GC 4542) [2]: >128 µg/mL
MIC Staphylococcus aureus (GC 4544) [2]: >128 µg/mL
MIC Staphylococcus aureus (GC 4545) [2]: >128 µg/mL
MIC Staphylococcus aureus-SMITH (GC 4543) [2]: >128 µg/mL
MIC Staphylococcus haemolyticus (GC 4546) [2]: >128 µg/mL
MIC Staphylococcus aureus (ATCC 29213) ([2]; strain ATCC 29213): >128 µg/mL
MIC Staphylococcus aureus (GC 1131) ([2]; strain GC 1131): >128 µg/mL
MIC Staphylococcus aureus (GC 3051) ([2]; strain GC 3051): >128 µg/mL
MIC Staphylococcus aureus (GC 3053) ([2]; strain GC 3053): >128 µg/mL
MIC Staphylococcus aureus (GC 4541) ([2]; strain GC 4541): >128 µg/mL
MIC Staphylococcus aureus (GC 4542) ([2]; strain GC 4542): >128 µg/mL
MIC Staphylococcus aureus-SMITH (GC 4543) ([2]; strain GC 4543): >128 µg/mL
MIC Staphylococcus aureus (GC 4544) ([2]; strain GC 4544): >128 µg/mL
MIC Staphylococcus aureus (GC 4545) ([2]; strain GC 4545): >128 µg/mL
MIC Staphylococcus haemolyticus (GC 4546) ([2]; strain GC 4546): >128 µg/mL
MIC Coagulase Negative Staphylococcus (GC 4547) ([2]; strain GC 4547): >128 µg/mL
MIC Coagulase Negative Staphylococcus (GC 4548) ([2]; strain GC 4548): >128 µg/mL
MIC Coagulase Negative Staphylococcus (GC 4549) ([2]; strain GC 4549): >128 µg/mL
MIC Coagulase Negative Staphylococcus (GC 4551) ([2]; strain GC 4551): >128 µg/mL
MIC Coagulase Negative Staphylococcus (GC 6257) ([2]; strain GC 6257): >128 µg/mL
MIC Streptococcus agalactiae (GC 4564) [3]: >128 µg/mL
MIC Streptococcus pneumoniae (ATCC 6301) [3]: 128 µg/mL (≈ 87.7 µM)
MIC Streptococcus pneumoniae (GC 1894) [3]: 64 µg/mL (≈ 43.8 µM)
MIC Streptococcus pneumoniae (GC 4565) [3]: 128 µg/mL (≈ 87.7 µM)
MIC Streptococcus pyogenes (GC 4563) [3]: >128 µg/mL
MIC Streptococcus pneumoniae (ATCC 6301) ([3]; strain ATCC 6301): 128 µg/mL (≈ 87.7 µM)
MIC Streptococcus pneumoniae (GC 1894) ([3]; strain GC 1894): 64 µg/mL (≈ 43.8 µM)
MIC Streptococcus pyogenes (GC 4563) ([3]; strain GC 4563): >128 µg/mL
MIC Streptococcus agalactiae (GC 4564) ([3]; strain GC 4564): >128 µg/mL
MIC Streptococcus pneumoniae (GC 4565) ([3]; strain GC 4565): 128 µg/mL (≈ 87.7 µM)
MIC Enterococcus avium (GC 4558) [4]: 64 µg/mL (≈ 43.8 µM)
MIC Enterococcus faecalis (ATCC 29212) [4]: >128 µg/mL
MIC Enterococcus faecalis (GC 2242) [4]: >128 µg/mL
MIC Enterococcus faecalis (GC 2691) [4]: >128 µg/mL
MIC Enterococcus faecalis (GC 3059) [4]: >128 µg/mL
MIC Enterococcus faecalis (GC 4552) [4]: >128 µg/mL
MIC Enterococcus faecalis (GC 4553) [4]: 128 µg/mL (≈ 87.7 µM)
MIC Enterococcus faecalis (GC 4554) [4]: >128 µg/mL
MIC Enterococcus faecalis (GC 6189) [4]: >128 µg/mL
MIC Enterococcus faecium (GC 2243) [4]: >128 µg/mL
MIC Enterococcus faecium (GC 4556) [4]: >128 µg/mL
MIC Enterococcus faecium (GC 4557) [4]: 128 µg/mL (≈ 87.7 µM)
MIC Enterococcus faecalis (ATCC 29212) ([4]; strain ATCC 29212): >128 µg/mL
MIC Enterococcus faecalis (GC 2242) ([4]; strain GC 2242): >128 µg/mL
MIC Enterococcus faecium (GC 2243) ([4]; strain GC 2243): >128 µg/mL
MIC Enterococcus faecalis (GC 2691) ([4]; strain GC 2691): >128 µg/mL
MIC Enterococcus faecalis (GC 3059) ([4]; strain GC 3059): >128 µg/mL
MIC Enterococcus faecalis (GC 4552) ([4]; strain GC 4552): >128 µg/mL
MIC Enterococcus faecalis (GC 4553) ([4]; strain GC 4553): 128 µg/mL (≈ 87.7 µM)
MIC Enterococcus faecalis (GC 4554) ([4]; strain GC 4554): >128 µg/mL
MIC Enterococcus faecium (GC 4556) ([4]; strain GC 4556): >128 µg/mL
MIC Enterococcus faecium (GC 4557) ([4]; strain GC 4557): 128 µg/mL (≈ 87.7 µM)
MIC Enterococcus avium (GC 4558) ([4]; strain GC 4558): 64 µg/mL (≈ 43.8 µM)
MIC Enterococcus faecalis (GC 6189) ([4]; strain GC 6189): >128 µg/mL
